Assay results reported in article PMC10384982, “Investigation of Novel Benzoxazole-Oxadiazole Derivatives as Effective Anti-Alzheimer’s Agents: In Vitro and In Silico Approaches” (Pharmaceuticals, 2023).
Like-named read-outs stand apart in the source and are kept apart here.

Molecular target: T1, butyrylcholinesterase (BuChE) (Equus caballus, UniProt P81908)
T1 construct: butyrylcholinesterase (E.C. 3.1.1.8) from equine serum; purchased Sigma–Aldrich (Steinheim, Germany); host or cells: equine serum
Assay: biochemical
Method: Acetylcholinesterase (E.C.3.1.1.7) (Type VI-S from electric eel and recombinant human enzyme) and butyrylcholinesterase (E.C. 3.1.1.8) from equine serum were purchased from Sigma–Aldrich (Steinheim, Germany). All of the materials used in the synthesis were purchased from Merck or Sigma–Aldrich (St. Louis, MO, USA) (Darmstadt, Germany). The ^1H NMR and ^13C NMR spectra in DMSO-d6 were recorded using a Bruker operating at 600 and 150 MHz digital FT-NMR spectrometer (Billerica, MA, USA, Bioscience, Bruker). The NMR spectra’s splitting patterns were recognized and categorized as doublet (d), singlet (s), double doublet (dd), multiplet (m) and triplet (t). In hertz, the coupling constants (J) are given (Hz). Mass spectra were captured on a Shimadzu LCMS-IT-TOF system (Kyoto, Japan) using the electrospray ionization (ESI) method. Using thin-layer chromatography and silica gel 60 F254 to test the purity of synthesized compounds (Darmstadt, Germany, Merck, KGaA).
The inhibition of AChE and BChE was determined using a method described earlier. Briefly, the stock solutions (1 mg/mL) of test analogues were prepared using DMSO. The working solutions (1–100 µg/mL) were prepared using serial dilutions (a serial dilution means a series of diluted solutions, e.g., 0.1 mg/mL, 0.2 mg/mL and so on; the solutions contained 5% DMSO and 95% water). The various concentrations of test compounds (10 µL) were pre-incubated with sodium phosphate buffer (0.1 M; pH 8.0; 150 µL) and AChE (0.1 U/mL; 20 µL) for 15 min at 25 °C. The reaction was initiated via the addition of DTNB (1 mM; 10 µL) and […] (1 mM; 10 µL). The mixture of reaction was mixed using a cyclomixer and incubated for 10 min at 25 °C. The absorbance was measured using a microplate reader at a 410 nm wavelength against the blank reading containing 10 µL DMSO instead of the test compound (the solution contained 5% DMSO and 95% water).

[1] = read-out: BuChE Inhibition IC50 ± SEM

T1 sequence (P81908 whole entry): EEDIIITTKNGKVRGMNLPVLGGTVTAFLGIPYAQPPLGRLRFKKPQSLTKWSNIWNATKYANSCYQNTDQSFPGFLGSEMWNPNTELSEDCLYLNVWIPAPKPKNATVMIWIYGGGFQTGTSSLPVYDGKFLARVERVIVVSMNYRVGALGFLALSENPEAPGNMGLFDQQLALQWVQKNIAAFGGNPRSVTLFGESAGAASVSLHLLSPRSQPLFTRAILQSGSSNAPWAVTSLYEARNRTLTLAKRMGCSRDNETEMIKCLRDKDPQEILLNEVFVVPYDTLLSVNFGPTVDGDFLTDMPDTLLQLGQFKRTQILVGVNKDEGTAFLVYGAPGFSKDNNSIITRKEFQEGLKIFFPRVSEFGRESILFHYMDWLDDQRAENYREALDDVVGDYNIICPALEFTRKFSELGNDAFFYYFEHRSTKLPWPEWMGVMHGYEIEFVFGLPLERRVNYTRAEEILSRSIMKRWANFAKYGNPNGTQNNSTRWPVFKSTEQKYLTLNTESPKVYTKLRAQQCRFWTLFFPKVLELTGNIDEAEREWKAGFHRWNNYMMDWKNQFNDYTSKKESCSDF

Structure (SMILES): Clc1ccc(/C(CSc2nc3ccccc3o2)=N\c2nnc(-c3ccc(Cl)c(Cl)c3)o2)cc1Cl [Compound 15, (E)-2-(Benzo[d]oxazol-2-ylthio)-1-(3,4-dichlorophenyl)-N-(5-(3,4-dichlorophenyl)-1,3,4-oxadiazol-2-yl)ethan-1-imine]
- IC50 [1]: 7.2 ± 2.3 µM

Structure (SMILES): O=[N+]([O-])c1cccc(/C(CSc2nc3ccccc3o2)=N\c2nnc(-c3ccc(Cl)cc3Cl)o2)c1 [Compound 3, (E)-2-(Benzo[d]oxazol-2-ylthio)-N-(5-(2,4-dichlorophenyl)-1,3,4-oxadiazol-2-yl)-1-(3-nitrophenyl)ethan-1-imine]
- IC50 [1]: 9.2 ± 1.9 µM

Structure (SMILES): Clc1ccc(-c2nnc(/N=C(/CSc3nc4ccccc4o3)c3ccc(Cl)c(Cl)c3)o2)cc1 [Compound 17, (E)-2-(Benzo[d]oxazol-2-ylthio)-N-(5-(4-chlorophenyl)-1,3,4-oxadiazol-2-yl)-1-(3,4-dichlorophenyl)ethan-1-imine]
- IC50 [1]: 13.3 ± 3.2 µM

Structure (SMILES): Cc1cccc(/C(CSc2nc3ccccc3o2)=N\c2nnc(-c3ccc(OCc4ccccc4)cc3)o2)c1 [Compound 13, (E)-2-(Benzo[d]oxazol-2-ylthio)-N-(5-(4-(benzyloxy)phenyl)-1,3,4-oxadiazol-2-yl)-1-(m-tolyl)ethan-1-imine]
- IC50 [1]: 31.5 ± 4.9 µM

Structure (SMILES): O=[N+]([O-])c1cccc(/C(CSc2nc3ccccc3o2)=N\c2nnc(-c3ccc(Cl)cc3)o2)c1 [Compound 4, (E)-2-(Benzo[d]oxazol-2-ylthio)-N-(5-(4-chlorophenyl)-1,3,4-oxadiazol-2-yl)-1-(3-nitrophenyl)ethan-1-imine]
- IC50 [1]: 11.9 ± 1.1 µM

Structure (SMILES): Cc1ccc(/C(CSc2nc3ccccc3o2)=N\c2nnc(-c3ccc([N+](=O)[O-])cc3)o2)cc1 [Compound 10, (E)-2-(Benzo[d]oxazol-2-ylthio)-N-(5-(4-nitrophenyl)-1,3,4-oxadiazol-2-yl)-1-(p-tolyl)ethan-1-imine]
- IC50 [1]: 18.5 ± 1.9 µM

Structure (SMILES): Cc1ccc(/C(CSc2nc3ccccc3o2)=N\c2nnc(-c3cccc([N+](=O)[O-])c3)o2)cc1 [Compound 7, (E)-2-(Benzo[d]oxazol-2-ylthio)-N-(5-(3-nitrophenyl)-1,3,4-oxadiazol-2-yl)-1-(p-tolyl)ethan-1-imine]
- IC50 [1]: 15.8 ± 3.1 µM

Structure (SMILES): CN(C)c1ccc(-c2nnc(/N=C(/CSc3nc4ccccc4o3)c3cccc([N+](=O)[O-])c3)o2)cc1 [Compound 5, (E)-4-(5-((2-(Benzo[d]oxazol-2-ylthio)-1-(3-nitrophenyl)ethylidene)amino)-1,3,4-oxadiazol-2-yl)-N,N-dimethylaniline]
- IC50 [1]: 16.6 ± 2.5 µM

Structure (SMILES): Cc1ccc(/C(CSc2nc3ccccc3o2)=N\c2nnc(-c3ccc(Cl)cc3)o2)cc1 [Compound 11, (E)-2-(Benzo[d]oxazol-2-ylthio)-N-(5-(4-chlorophenyl)-1,3,4-oxadiazol-2-yl)-1-(p-tolyl)ethan-1-imine]
- IC50 [1]: 12.3 ± 1.5 µM

Structure (SMILES): Cc1ccc(/C(CSc2nc3ccccc3o2)=N\c2nnc(-c3ccc(N(C)C)cc3)o2)cc1 [Compound 8, (E)-4-(5-((2-(Benzo[d]oxazol-2-ylthio)-1-(p-tolyl)ethylidene)amino)-1,3,4-oxadiazol-2-yl)-N,N-dimethylaniline]
- IC50 [1]: 24.6 ± 3.8 µM

Structure (SMILES): O=[N+]([O-])c1ccc(-c2nnc(/N=C(/CSc3nc4ccccc4o3)c3cccc([N+](=O)[O-])c3)o2)cc1 [Compound 1, (E)-2-(Benzo[d]oxazol-2-ylthio)-1-(3-nitrophenyl)-N-(5-(4-nitrophenyl)-1,3,4-oxadiazol-2-yl)ethan-1-imine]
- IC50: 8.9 ± 1.8 µM

Structure (SMILES): Cc1ccc(/C(CSc2nc3ccccc3o2)=N\c2nnc(-c3ccc4ccccc4c3)o2)cc1 [Compound 14, (E)-2-(Benzo[d]oxazol-2-ylthio)-N-(5-(naphthalen-2-yl)-1,3,4-oxadiazol-2-yl)-1-(p-tolyl)ethan-1-imine]
- IC50 [1]: 42.6 ± 6.1 µM

Structure (SMILES): Cc1ccc(/C(CSc2nc3ccccc3o2)=N\c2nnc(-c3ccc(Cl)cc3Cl)o2)cc1 [Compound 9, (E)-2-(Benzo[d]oxazol-2-ylthio)-N-(5-(2,4-dichlorophenyl)-1,3,4-oxadiazol-2-yl)-1-(p-tolyl)ethan-1-imine]
- IC50 [1]: 14.8 ± 2.7 µM

Structure (SMILES): O=[N+]([O-])c1ccc(-c2nnc(/N=C(/CSc3nc4ccccc4o3)c3ccc(Cl)c(Cl)c3)o2)cc1 [Compound 19, (E)-2-(Benzo[d]oxazol-2-ylthio)-1-(3,4-dichlorophenyl)-N-(5-(4-nitrophenyl)-1,3,4-oxadiazol-2-yl)ethan-1-imine]
- IC50 [1]: 9.8 ± 2.3 µM

Structure (SMILES): O=[N+]([O-])c1cccc(-c2nnc(/N=C(/CSc3nc4ccccc4o3)c3ccc(Cl)c(Cl)c3)o2)c1 [Compound 16, (E)-2-(Benzo[d]oxazol-2-ylthio)-1-(3,4-dichlorophenyl)-N-(5-(3-nitrophenyl)-1,3,4-oxadiazol-2-yl)ethan-1-imine]
- IC50 [1]: 7.6 ± 2.1 µM

Structure (SMILES): O=[N+]([O-])c1cccc(/C(CSc2nc3ccccc3o2)=N\c2nnc(-c3cccc([N+](=O)[O-])c3)o2)c1 [Compound 2, (E)-2-(Benzo[d]oxazol-2-ylthio)-1-(3-nitrophenyl)-N-(5-(3-nitrophenyl)-1,3,4-oxadiazol-2-yl)ethan-1-imine]
- IC50: 7.5 ± 1.2 µM

Structure (SMILES): CN(C)c1ccc(-c2nnc(/N=C(/CSc3nc4ccccc4o3)c3ccc(Cl)c(Cl)c3)o2)cc1 [Compound 18, (E)-4-(5-((2-(Benzo[d]oxazol-2-ylthio)-1-(3,4-dichlorophenyl)ethylidene)amino)-1,3,4-oxadiazol-2-yl)-N,N-dimethylaniline]
- IC50 [1]: 18.3 ± 3.2 µM

Structure (SMILES): Cc1ccc(/C(CSc2nc3ccccc3o2)=N\c2nnc(-c3ccc(OCc4ccccc4)cc3)o2)cc1 [Compound 6, (E)-2-(Benzo[d]oxazol-2-ylthio)-N-(5-(4-(benzyloxy)phenyl)-1,3,4-oxadiazol-2-yl)-1-(p-tolyl)ethan-1-imine]
- IC50 [1]: 28.6 ± 3.8 µM

Structure (SMILES): Cc1ccc(/C(CSc2nc3ccccc3o2)=N\c2nnc(-c3ccc(C=O)cc3)o2)cc1 [Compound 12, (E)-4-(5-((2-(Benzo[d]oxazol-2-ylthio)-1-(p-tolyl)ethylidene)amino)-1,3,4-oxadiazol-2-yl)benzaldehyde]
- IC50 [1]: 28.7 ± 3.9 µM
